Test results published in patent US8796256B2 (Janssen Pharmaceutica NV, priority 2010, dated 2014).
Where two headings read alike, the source gives them in different places.

Key:
Zucker fa/fa male rats = assay: Zucker fa/fa Rat Model Assay; assay type: in vivo; details: po, 120 h, 10 mg/kg orally once a day for 4 days
Text: Zucker fa/fa is a monogenic model of frank diabetes due to a mutation on the fa gene truncating the leptin receptor and preventing its interaction with its peptide hormone. This mutation results in a hyperphagic phenotype and the rodent develops obesity, hyperlipidemia, fasting hyperglycemia and insulin resistance. Zucker fa/fa male rats were received at four weeks of age and allowed to acclimate for one week. At five weeks of age the animals were single housed in cages in a temperature-controlled room with 12-hour light/dark cycle. The rats were allowed ad libitum access to water and food and throughout the study were maintained on a Purina 5008 diet. Animals were sorted based primarily on fed insulin levels and circulating triglycerides. Animals were dosed orally once a day (10 mg/kg) in the morning for 4 days. The vehicle used was either 20% HPβCD (Hydroxypropyl Beta Cyclodextrin) or 15% Vitamin E/30% PEG-400 (Polyethylene Glycol 400). Fed insulin and triglycerides were measured using blood collected from the tail vein at day 5. Serum plasma samples were prepared by centrifugation in EDTA (Ethylenediaminetetraacetic acid) containing tubes, transferred into 96 well plates and stored at −80° C.

[1] = molecular target: T1, ERR1 (also known as ERR-α or ERR-1) (Homo sapiens, UniProt P11474); assay: TR-FRET assay (disruption of co-activator peptide binding to ERR1 LBD); assay type: biochemical; details: 6 nM 6His-ERR1LBD, 6 nM GST-SRC-2 peptide; average of 3 independent experiments
T1 sequence (P11474 193-421 limits assumed): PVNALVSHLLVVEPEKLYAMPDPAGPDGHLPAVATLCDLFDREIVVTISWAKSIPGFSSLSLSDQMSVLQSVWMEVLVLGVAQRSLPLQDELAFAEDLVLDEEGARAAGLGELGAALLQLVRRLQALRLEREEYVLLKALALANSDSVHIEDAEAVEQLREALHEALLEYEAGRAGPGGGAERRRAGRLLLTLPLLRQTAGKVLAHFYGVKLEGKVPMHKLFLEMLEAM
How it was run: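 His-tagged ERR1 ligand-binding domain and GST-labelled SRC-2 peptide, each 6 nM, equilibrated at 25° C for 4-18 h in Tris pH 8/Hepes/KCl/DTT/delipidated BSA buffer. Compound-induced loss of co-activator binding read as Eu cryptate→XL665 energy transfer; values from hyperbolic curve fits averaged over 3 independent runs.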

[2] = blood from tail vein at day 5, read-out: % Change Fed Insulin Levels
[3] = blood from tail vein at day 5, read-out: % Change Fed Triglyceride Levels

EC50 [1] [nM] | SMILES | change in vivo at 10 mg/kg (Zucker fa/fa male rats; [2]) [%] | change in vivo at 10 mg/kg (Zucker fa/fa male rats; [3]) [%]
8 | CC(=O)NS(=O)(=O)CN1C(=O)S/C(=C\c2ccc3c(cnn3Cc3ccc(Cl)cc3C(F)(F)F)c2)C1=O [Compound 166, N-({[(5Z)-5-({1-[4-Chloro-2-(trifluoromethyl)benzyl]-1H-indazol-5-yl}methylidene)-2,4-dioxo-1,3-thiazolidin-3-yl]methyl}sulfonyl)acetamide] | -58 | -37
22 | O=C(O)CN1C(=O)S/C(=C\c2ccc3c(c2)c(Cl)nn3Cc2ccc(Cl)cc2C(F)(F)F)C1=O [Compound 287, [(5Z)-5-({1-[4-Chloro-2-(trifluoromethyl)benzyl]-3-chloro-1H-indazol-5-yl}methylidene)-2,4-dioxo-1,3-thiazolidin-3-yl]acetic acid] | -53 | -36
58 | N=C(N)NOCCN1C(=O)S/C(=C\c2ccc3c(cnn3Cc3ccc(Cl)cc3C(F)(F)F)c2)C1=O [Compound 91, 1-{2-[(5Z)-5-({1-[4-Chloro-2-(trifluoromethyl)benzyl]-1H-indazol-5-yl}methylidene)-2,4-dioxo-1,3-thiazolidin-3-yl]ethoxy}guanidine] | -68 | -60
17 | O=C1S/C(=C\c2ccc3c(cnn3Cc3ccc(Cl)cc3C(F)(F)F)c2)C(=O)N1CCN1CCCC1 [Compound 111, (5Z)-5-({1-[4-Chloro-2-(trifluoromethyl)benzyl]-1H-indazol-5-yl}methylidene)-3-(2-pyrrolidin-1-ylethyl)-1,3-thiazolidine-2,4-dione] | -49 | -30
27 | COc1nn(Cc2ccc(Cl)cc2C(F)(F)F)c2ccc(/C=C3\SC(=O)N(CCN4CCCC4)C3=O)cc12 [Compound 27, (5Z)-5-({1-[4-Chloro-2-(trifluoromethyl)benzyl]-3-methoxy-1H-indazol-5-yl}methylidene)-3-(2-pyrrolidin-1-ylethyl)-1,3-thiazolidine-2,4-dione] | 9 | 0
23 | N[C@@H](CO)CN1C(=O)S/C(=C\c2ccc3c(cnn3Cc3ccc(Cl)cc3C(F)(F)F)c2)C1=O [Compound 167, (5Z)-3-[(2R)-2-Amino-3-hydroxypropyl]-5-({1-[4-chloro-2-(trifluoromethyl)benzyl]-1H-indazol-5-yl}methylidene)-1,3-thiazolidine-2,4-dione] | -33 | -45
23 | CN(C)S(=O)(=O)NC(=O)CN1C(=O)S/C(=C\c2ccc3c(cnn3Cc3ccc(Cl)cc3C(F)(F)F)c2)C1=O [Compound 35, 2-[(5Z)-5-({1-[4-Chloro-2-(trifluoromethyl)benzyl]-1H-indazol-5-yl}methylidene)-2,4-dioxo-1,3-thiazolidin-3-yl]-N-(dimethylsulfamoyl) acetamide] | -29 | -46
19 | NS(=O)(=O)NC(=O)CN1C(=O)S/C(=C\c2ccc3c(cnn3Cc3ccc(Cl)cc3C(F)(F)F)c2)C1=O [Compound 31, 2-[(5Z)-5-({1-[4-Chloro-2-(trifluoromethyl)benzyl]-1H-indazol-5-yl}methylidene)-2,4-dioxo-1,3-thiazolidin-3-yl]-N-sulfamoylacetamide] | -51 | -14
8 | COc1ccc(Cn2ncc3cc(/C=C4\SC(=O)N(C5CCC(C(=O)O)CC5)C4=O)ccc32)c(C(F)(F)F)c1 (stereo not drawn) [Compound 22, 4-[(5Z)-5-({1-[4-Methoxy-2-(trifluoromethyl)benzyl]-1H-indazol-5-yl}methylidene)-2,4-dioxo-1,3-thiazolidin-3-yl)cyclohexanecarboxylic acid] | -11 | 32
54 | Cc1nn(Cc2ccc(Cl)cc2C(F)(F)F)c2ccc(/C=C3\SC(=O)N(CC(=O)NS(=O)(=O)N4CCCC4)C3=O)cc12 [Compound 40, 2-[(5Z)-5-({1-[4-Chloro-2-(trifluoromethyl)benzyl]-3-methyl-1H-indazol-5-yl}methylidene)-2,4-dioxo-1,3-thiazolidin-3-yl]-N-(pyrrolidin-1-ylsulfonyl)acetamide] | -10 | -23
22 | CN1CC[C@H](N2C(=O)S/C(=C\c3ccc4c(cnn4Cc4ccc(Cl)cc4C(F)(F)F)c3)C2=O)[C@@H](F)C1 [Compound 384, (5Z)-5-({1-[4-Chloro-2-(trifluoromethyl)benzyl]-1H-indazol-5-yl}methylidene)-3-[(3S,4S)-3-fluoro-1-methylpiperidin-4-yl]-1,3-thiazolidine-2,4-dione] | -52 | -51
26 | CS(=O)(=O)CCN1CCC(N2C(=O)S/C(=C\c3ccc4c(cnn4Cc4ccc(Cl)cc4C(F)(F)F)c3)C2=O)CC1 [Compound 149, (5Z)-5-({1-[4-Chloro-2-(trifluoromethyl)benzyl]-1H-indazol-5-yl}methylidene)-3-{1-[2-(methylsulfonyl)ethyl]piperidin-4-yl}-1,3-thiazolidine-2,4-dione] | -35 | 10
23 | CN1CC[C@@H](N2C(=O)S/C(=C\c3ccc4c(cnn4Cc4ccc(Cl)cc4C(F)(F)F)c3)C2=O)[C@H](F)C1 [Compound 383, (5Z)-5-({1-[4-Chloro-2-(trifluoromethyl)benzyl]-1H-indazol-5-yl}methylidene)-3-[(3R,4R)-3-fluoro-1-methylpiperidin-4-yl]-1,3-thiazolidine-2,4-dione] | -67 | -68
15 | O=C1S/C(=C\c2ccc3c(cnn3Cc3ccc(Cl)cc3C(F)(F)F)c2)C(=O)N1C[C@H]1COCCN1 [Compound 170, (5Z)-5-({1-[4-Chloro-2-(trifluoromethyl)benzyl]-1H-indazol-5-yl}methylidene)-3-[(3S)-morpholin-3-ylmethyl]-1,3-thiazolidine-2,4-dione] | -52 | -61
15 | O=C1S/C(=C\c2ccc3c(cnn3Cc3ccc(Cl)cc3C(F)(F)F)c2)C(=O)N1C1CCN(CCO)CC1 [Compound 148, (5Z)-5-({1-[4-Chloro-2-(trifluoromethyl)benzyl]-1H-indazol-5-yl}methylidene)-3-[1-(2-hydroxyethyl)piperidin-4-yl]-1,3-thiazolidine-2,4-dione] | -77 | -40
30 | O=C1CN(CCN2C(=O)S/C(=C\c3ccc4c(cnn4Cc4ccc(Cl)cc4C(F)(F)F)c3)C2=O)CCN1 [Compound 79, (5Z)-5-({1-[4-Chloro-2-(trifluoromethyl)benzyl]-1H-indazol-5-yl}methylidene)-3-[2-(3-oxopiperazin-1-yl)ethyl]-1,3-thiazolidine-2,4-dione] | -20 | 34
12 | O=C(O)C1CCC(N2C(=O)S/C(=C\c3ccc4c(cnn4Cc4ccc(Cl)cc4C(F)(F)F)c3)C2=O)CC1 (stereo not drawn) [Compound 73, 4-[(5Z)-5-({1-[4-Chloro-2-(trifluoromethyl)benzyl]-1H-indazol-5-yl}methylidene)-2,4-dioxo-1,3-thiazolidin-3-yl]cyclohexanecarboxylic acid] | -30 | -19
28 | Cc1nn(Cc2ccc(Cl)cc2C(F)(F)F)c2ccc(/C=C3\SC(=O)N(CC(=O)O)C3=O)cc12 [Compound 36, [(5Z)-5-({1-[4-Chloro-2-(trifluoromethyl)benzyl]-3-methyl-1H-indazol-5-yl}methylidene)-2,4-dioxo-1,3-thiazolidin-3-yl]acetic acid] | -18 | -4

SMILES | EC50 [1] [nM] | change in vivo at 10 mg/kg (Zucker fa/fa male rats; [2]) [%] | change in vivo at 10 mg/kg (Zucker fa/fa male rats; [3]) [%]
CN1C2CCC1CC(N1C(=O)S/C(=C\c3ccc4c(cnn4Cc4ccc(Cl)cc4C(F)(F)F)c3)C1=O)C2 (stereo not drawn) [Compound 128, (5Z)-5-({1-[4-Chloro-2-(trifluoromethyl)benzyl]-1H-indazol-5-yl}methylidene)-3-(8-methyl-8-azabicyclo[3.2.1]oct-3-yl)-1,3-thiazolidine-2,4-dione] | 19 | -36 | 28
